Results: patent publication US9630964B2, “Fluoro-9-methyl-β-carbolines” (priority 2013, dated 2017)
Values after ≈ are worked out from the molar mass of the structure shown.

Tests used:
[1] = tested on: Cbln (Cerebellin 1 precursor protein); assay: Quantitative RT-PCR, relative gene expression of Cbln in SH-SY5Y cells; type: cell-based, human; settings: 30 μM each, except after 2-day exposition
Method: (§1) SH-SY5Y cell lines, which were provided by the institute of human genetics of university hospital Eppendorf and which they in turn received from Braunschweig resource center, were used again for the RT-PCR experiments (reverse transcriptase polymerase chain reaction) carried out for this purpose.
(§2) The cells were incubated in MEM (Minimum essential medium, Life Technologies) with 10% FCS (fetal calf serum, Biochrom AG) and penicillin/streptomycin (Biochrom AG). The cells were seeded with a density of 1×10^5 cells/cm^2 in 25 cm^2 cell culture bottles (Falcon, cell culture treated) with 5 mL medium. […]
(§3) The RNA-isolation was done with the HighPure RNA Isolation kit of the company Roche. […] The concentration of RNA was measured with nanoDrop spectrometer and the RNA integrity was determined with the aid of the Bioanalyzer 2100 (Agilent). […]
(§4) After the reaction, this run was diluted 1:4 and thereof 2 μL per each quantitative RT-PCR were used. This was performed in a LightCycler 480 under standard conditions in the SybrGreen format with annealing temperatures determined for each primer individually. […]
(§5) The specificity was verified by melting curve analysis and subsequent gel electrophoresis. For each PCR the PCR efficiency and the Cq value was determined by the program LinRegPCR and these were used in further calculations. […]

learning behavior = assay: Eight-armed labyrinth learning test; type: in vivo, rat; settings: rats, 2 mg/kg intraperitoneally daily, 2 hours before session; control group 14 days
Method: In an eight-armed labyrinth the effect of 6F9MβC on the learning behavior was tested. 5 months old male rats were got used to the experimenter in daily sessions for 10 days. Afterwards, they were allowed to explore the labyrinth in multiple sessions for 2 days and they also learnt that they get a food reward there. Then the food was reduced until the body weight was reduced by 10% of the starting weight. Afterwards, at each end of the 8 arms of the labyrinth food was placed and a camera installed that recorded every movement of the animal. On the first test day the rat was placed without a prior injection on the platform in the center of the labyrinth. At the next day 2 mg/kg body weight 6-fluoro-9-methyl-β-carboline (6F9MβC) as free base dissolved in physiological sodium chloride solution was administered intraperitoneally to the rat by the experimenter. 2 hours later the animal was placed on the platform in the center of the labyrinth from where it had access to all arms. This procedure was repeated daily until the animal only did one mistake, i.e. went in an arm, which it had already entered before in the corresponding session. At the end of the session all 8 arms had to be visited.
12 rats, that were treated with 6F9MβC and a control group of 12 rats, that only got physiological sodium chloride solution, were examined. […]

[2] = guinea pig, in vivo
Method: For better evaluation of half times of 9-methyl-β-carboline (9MβC), 6-fluoro-9-methyl-β-carboline (6F9MβC) and 7-fluoro-9-methyl-β-carboline (7F9MβC) in animal organism and more precisely in perilymph (the notified site of action), experiments with guinea pigs were conducted. Therefore, the respective active agent (in total 1.4 mg active agent per ear), packed in 40 μl of a hydrogel (18% Poloxamer 407 and 0.6% alginate), was administered at once in front of the membrane of the round window of narcotized guinea pigs. […] After expiry of the desired time (20 min, 2 h, 8 h or 24 h), each time 5 μL perilymph were removed under anesthesia from the top of the cochlea (apex). Subsequently, the animal was killed. Per each time (20 min, 2 h, 8 h or 24 h) measured values were taken of at least ears and averaged.
The concentration of the corresponding active agent in perilymph samples was determined by high-performance liquid chromatography (HPLC, partly also named as high-pressure liquid chromatography) and measurement of auto fluorescence of the respective active agent. For HPLC the eluent consisted to 45% of 90% acetonitrile and to 55% of ammonium acetate (40 mM, pH<5). The flow rate was 0.4 mL/min and injection volume was 10 μL. Each sample was diluted with 60% methanol, if the signal was too strong. After each run the injection needle was washed with 100% isopropanol. The detection limit was 20 fmol/L.
From the determined active agent concentrations the elimination half times were then calculated.

physchem = settings: water
Method: Furthermore, the solubility of both compounds in water was determined by preparing concentration series of both compounds in water at room temperature. The concentration at which the compound was barely soluble was determined by external calibration. The corresponding concentration was quantified by HPLC.

[3] = Degradation in liver homogenate to toxic dimethylated degradation products (HPLC); settings: rat liver homogenate, conclusion
Method: Also a reference measurement with pure 6-fluoro-9-methyl-β-carboline (6F9MβC) was performed.
To simulate the degradation process in the liver, different concentrations (1 μM, 10 μM and 100 μM) of 6-fluoro-9-methyl-β-carboline (6F9MβC) were incubated with homogenized rat liver for an hour under physiological conditions (37° C. in physiological phosphate-buffered sodium chloride solution, PBS). Subsequently, a HPLC measurement of the filtrated extract was carried out.
The characterization of each substance was achieved by high-performance liquid chromatography (HPLC, partly also named as high-pressure liquid chromatography). For HPLC the eluent consisted to 45% of 90% acetonitrile and to 55% of ammonium acetate (40 mM, pH<5). The flow rate was 0.4 mL/min and injection volume was 10 μL. Each sample was diluted with 60% methanol, if the signal was too strong.

NT3 (Neurotrophin 3) = assay: Quantitative RT-PCR, relative gene expression of NT3 in SH-SY5Y cells; type: cell-based, human; settings: 30 μM each, 14-day exposition
Method: as §1, §2, §3, §4, §5

[4] = tested on: BTG2 (B-cell translocation gene 2); assay: Quantitative RT-PCR, relative gene expression of BTG2 in SH-SY5Y cells; type: cell-based, human; settings: 10 μM 6F9MβC, except after 2-day exposition
Method: as §1, §2, §3, §4, §5

[5] = tested on: BDNF (brain derived neurotrophic factor); assay: Examination on cellular level: concentration of BDNF; type: cell-based
CREB = assay: Examination on cellular level: concentration of CREB; type: cell-based

Cn1c2ccc(F)cc2c2ccncc21 [6F9MβC, 6-fluoro-9-methyl-β-carboline]
Cbln expression relative to expression induced by 9MβC [1]: approximately 1.5 times | time until the criteria (only one mistake) were reached (learning behavior): 6 days | elimination half time [2]: approximately 6.0 h | solubility (physchem): 29.7 µg/mL (≈ 148 µM) | metabolization to known toxic (di-methylated) degradation products [3]: does not lead to toxic di-methylated products | metabolization to known toxic (di-methylated) degradation products ([3]; listed as 6-fluoro-9-methyl-β-carboline): does not metabolize to known toxic degradation products | NT3 expression relative to expression induced by 9MβC (NT3 (Neurotrophin 3)): approximately 3.5 times | BTG2 expression compared to the highest concentration of 9MβC [4]: comparable | increase of the concentration of BDNF [5]: up to three times | increase of the concentration of CREB (factor) (CREB): 8
